PubChem BioAssay AID1963833 (Molecular Pharmacology Branch, DTP, NCI, 2024)

System: 883617-216-R-J1-PDC complex spheroid viability
Experiment: Anticancer human tumor 883617-216-R-J1-PDC patient-derived bladder carcinoma cell line growth inhibition [POLQ]
Details: for IC50: curve of first compound; for viability, T/C: stronger effect = lower value
Method: Multicellular complex tumor spheroid response to Polymerase (POL) inhibitors (novobiocin, ART-558, RP6685) in combination with a variety of drugs and investigational agents in selected tumor cell lines
The POL inhibitors (novobiocin, ART-558, and RP6685) were evaluated both individually and in combination with standard of care and investigational anticancer small molecules within a complex spheroid model of solid tumors. . Complex spheroids include a stromal component modeled by human endothelial cells (HUVEC) and fibroblasts modeled by human mesenchymal stem cells (MSCs). The concentration ranges selected for each drug and investigational agent were based upon clinically achievable concentrations if the clinical Cmax of the agent was known.
Compounds. The drugs and investigational agents: novobiocin (NSC847541), ART-558 (NSC835418), RP-6685 (NSC848927), peposertib (NSC802822), ceralasertib (NSC780249), elimusertib (NSC800525), camonsertib (NSC841442), AZD-1390 (NSC803789), olaparib (NSC753686), talazoparib (NSC767125), rucaparib (NSC756644), sotorasib (NSC818433), MRTX-1133 (NSC836407), SN-38 (NSC673596), topotecan (NSC609699), epotoside (NSC141540), doxorubicin (NSC123127), gemcitabine (NSC613327), 5-fluorouracil (NSC19893), paclitaxel (NSC125973), vemurafenib (NSC761431), MSA-2 (NSC828583), SN-011 (NSC837082), adavosertib (NSC754352), prexasertib (NSC758257), carboplatin (NSC241240) and oxaliplatin (NSC266046), were obtained from the National Cancer Institute (NCI) Developmental Therapeutics Program Chemical Repository (21). The FDA-approved anticancer drug set is available from the Developmental Therapeutics Program at https://dtp.cancer.gov/organization/dscb/obtaining/. […] The stock solutions were prepared in dimethyl sulfoxide (DMSO, Sigma-Aldrich, St. Louis, MO, cat. D2650), except for the platinum compounds which were prepared in saline (Quality Biological, Gaithersburg, MD, cat. 114-055-101), at 800-fold the tested concentration and stored at -70 degrees C prior to their use. All drugs and investigational agents were tested over a range starting from a high concentration at or near the clinical Cmax and decreasing in half-log increments. If the clinical Cmax for an agent had not been determined, the highest concentration tested was 10 microM, except for SN-38, which was tested at a high concentration of 1 microM.
Cell Culture. All cells were maintained in an incubator at 37 degrees C and 5% CO2 with 95% humidity. The PDC lines were cultured according to standard operating procedures established by the NCI PDMR (https://pdmr.cancer.gov). Table 3 of the manuscript, lists the cell lines along with the number of the three cell types plated to form the mct-spheroids and media for tumor cell growth. After thawing, all PDC lines, except 997537-175-T-J1-PDC and 415267-285-R-J2-PDC, were cultured in Matrigel-coated flasks prepared with a working solution of 1X Ham's F-12 nutrient mix, without supplementation (Thermo Fisher Scientific, cat. 11765054), 100 U/mL penicillin-streptomycin (Thermo Fisher Scientific, cat. 15140122), and 2.5% Matrigel (Corning Inc., Corning, NY, cat. 354248) for the first three passages. The two PDC lines 997537-175-T-J1-PDC and 415267-285-R-J2-PDC were cultured on uncoated flasks. The 857933-349-R-J2-PDC line was cultured in 6C/Colon 1B media containing advanced DMEM/F-12 (Thermo Fisher Scientific, cat. 12634028), 10 mM HEPES (Thermo Fisher Scientific, cat. 15630080), 1X GlutaMAX supplement (Thermo Fisher Scientific, cat. 35050061), 0.1 mg/mL primocin (InvivoGen, San Diego, CA, cat. ant-pm-2), 10% defined fetal bovine serum, heat inactivated (HyClone Laboratories Inc., Logan, UT, cat. SH30070.03HI), 50% L-WRN conditioned media (ATCC, cat. CRL-3276), 1.25 mM N-Acetyl-L-cysteine (Sigma-Aldrich, cat. A9165), 10 mM nicotinamide (Sigma-Aldrich, cat. N0636), 1X B-27 supplement (Thermo Fisher Scientific, cat. 17504044), 1X N-2 supplement (Thermo Fisher Scientific, cat. […]

[1] = second compound 0.0316 µM, first compound 0.0316 µM
[2] = second compound 0.0316 µM, first compound 0.1 µM
[3] = second compound 0.0316 µM, first compound 0.316 µM
[4] = second compound 0.0316 µM, first compound 1 µM
[5] = second compound 0.0316 µM, first compound 3.16 µM
[6] = second compound 0.0316 µM, first compound 10 µM
[7] = second compound 0.1 µM, first compound 0.0316 µM
[8] = second compound 0.1 µM, first compound 0.1 µM
[9] = second compound 0.1 µM, first compound 0.316 µM
[10] = second compound 0.1 µM, first compound 1 µM
[11] = second compound 0.1 µM, first compound 3.16 µM
[12] = second compound 0.1 µM, first compound 10 µM
[13] = second compound 0.316 µM, first compound 0.0316 µM
[14] = second compound 0.316 µM, first compound 0.1 µM
[15] = second compound 0.316 µM, first compound 0.316 µM
[16] = second compound 0.316 µM, first compound 1 µM
[17] = second compound 0.316 µM, first compound 3.16 µM
[18] = second compound 0.316 µM, first compound 10 µM
[19] = second compound 1 µM, first compound 0.0316 µM
[20] = second compound 1 µM, first compound 0.1 µM
[21] = second compound 1 µM, first compound 0.316 µM
[22] = second compound 1 µM, first compound 1 µM
[23] = second compound 1 µM, first compound 3.16 µM
[24] = second compound 1 µM, first compound 10 µM
[25] = second compound 3.16 µM, first compound 0.0316 µM
[26] = second compound 3.16 µM, first compound 0.1 µM
[27] = second compound 3.16 µM, first compound 0.316 µM
[28] = second compound 3.16 µM, first compound 1 µM
[29] = second compound 3.16 µM, first compound 3.16 µM
[30] = second compound 3.16 µM, first compound 10 µM
[31] = second compound 10 µM, first compound 0.0316 µM
[32] = second compound 10 µM, first compound 0.1 µM
[33] = second compound 10 µM, first compound 0.316 µM
[34] = second compound 10 µM, first compound 1 µM
[35] = second compound 10 µM, first compound 3.16 µM
[36] = second compound 10 µM, first compound 10 µM
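Further: spheroids exposed to compounds for seven days before readout.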
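Wherever viability, T/C is given: 100% = DMSO vehicle control viability.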

O=C(c1cc(Cc2n[nH]c(=O)c3ccccc23)ccc1F)N1CCN(C(=O)C2CC2)CC1 + COC1C(OC(N)=O)C(O)C(Oc2ccc3c(O)c(NC(=O)c4ccc(O)c(CC=C(C)C)c4)c(=O)oc3c2C)OC1(C)C
IC50 (second compound 0.0316 µM): > 10 µM
IC50 (second compound 0.1 µM): > 10 µM
IC50 (second compound 0.316 µM): > 10 µM
IC50 (second compound 1 µM): > 10 µM
IC50 (second compound 3.16 µM): > 10 µM
IC50 (second compound 10 µM): > 10 µM
viability, T/C [1]: 106%
viability, T/C [2]: 98%
viability, T/C [3]: 103%
viability, T/C [4]: 99.1%
viability, T/C [5]: 72.5%
viability, T/C [6]: 62.9%
viability, T/C [7]: 91%
viability, T/C [8]: 88.5%
viability, T/C [9]: 88.9%
viability, T/C [10]: 97.4%
viability, T/C [11]: 81.6%
viability, T/C [12]: 63%
viability, T/C [13]: 96.1%
viability, T/C [14]: 87.6%
viability, T/C [15]: 100%
viability, T/C [16]: 92.3%
viability, T/C [17]: 78%
viability, T/C [18]: 70.3%
viability, T/C [19]: 97.4%
viability, T/C [20]: 85.5%
viability, T/C [21]: 109%
viability, T/C [22]: 91.9%
viability, T/C [23]: 96.1%
viability, T/C [24]: 63.5%
viability, T/C [25]: 91.2%
viability, T/C [26]: 87.8%
viability, T/C [27]: 95.8%
viability, T/C [28]: 89%
viability, T/C [29]: 79.1%
viability, T/C [30]: 65.3%
viability, T/C [31]: 94%
viability, T/C [32]: 91.6%
viability, T/C [33]: 94.8%
viability, T/C [34]: 73.3%
viability, T/C [35]: 98.7%
viability, T/C [36]: 74.5%

COc1cc(C2c3cc4c(cc3C(OC3OC5COC(C)OC5C(O)C3O)C3COC(=O)C23)OCO4)cc(OC)c1O (centres undefined) + Cc1cccc(N(C)C(=O)C2C(O)CCN2c2nc(C)cc(C(F)(F)F)c2C#N)c1
IC50 (second compound 0.0316 µM): > 10 µM
IC50 (second compound 0.1 µM): 6.38 µM
IC50 (second compound 0.316 µM): > 10 µM
IC50 (second compound 1 µM): > 10 µM
IC50 (second compound 3.16 µM): > 10 µM
IC50 (second compound 10 µM): > 10 µM
viability, T/C [1]: 98.5%
viability, T/C [2]: 95.8%
viability, T/C [3]: 75.2%
viability, T/C [4]: 66%
viability, T/C [5]: 64%
viability, T/C [6]: 54.8%
viability, T/C [7]: 109%
viability, T/C [8]: 97.8%
viability, T/C [9]: 86.3%
viability, T/C [10]: 68.1%
viability, T/C [11]: 59.3%
viability, T/C [12]: 44.7%
viability, T/C [13]: 96.7%
viability, T/C [14]: 85.9%
viability, T/C [15]: 70%
viability, T/C [16]: 66.7%
viability, T/C [17]: 54.4%
viability, T/C [18]: 53.6%
viability, T/C [19]: 90%
viability, T/C [20]: 102%
viability, T/C [21]: 76.9%
viability, T/C [22]: 64.5%
viability, T/C [23]: 54.9%
viability, T/C [24]: 52.6%
viability, T/C [25]: 121%
viability, T/C [26]: 94.5%
viability, T/C [27]: 77.8%
viability, T/C [28]: 61.3%
viability, T/C [29]: 66.5%
viability, T/C [30]: 49.6%
viability, T/C [31]: 96.8%
viability, T/C [32]: 104%
viability, T/C [33]: 73%
viability, T/C [34]: 73.2%
viability, T/C [35]: 60%
viability, T/C [36]: 55.5%
